Source: patent US20240382517A1, “Topical Pharmaceutical Skin Composition for the Delivery of Nitric Oxide in Combination with Other Topical Dermatologic Agents” (NOxy Health Products, Inc., priority 2023, published 2024)
“Also recorded” adds a separate entry of the source. Where a name gives a salt, the structure may show the parent alone.

Tests used:
Assay type in all cases: physicochemical
[1] = NOx production of mixed foams, Thermoscientific 42iQLS Gas Analyzer; conditions: 0.4 M, 0.5 M, 0.6 M ascorbic acid as first (A) solution + second (B) solution without BAC; compared to citric acid; FIG. 4
Procedure: Methods. Solutions A and B were agitated by vigorous shaking until they produced foams. Then, two pumps of foam A (from Solution A) and foam B (from Solution B) were added to a weigh boat, and then the resulting mixture was thoroughly mixed with a gloved finger for five seconds. The resulting mixture was then placed in the sample chamber for measurement using a Thermoscientific 42iQLS Gas Analyzer. The measured concentration of the NOx produced was recorded every ten seconds. Using the Ideal Gas Law, the mass in mols of NOx was calculated.
The first (A) solution was prepared as described in Example 1, except BAC was not included. The second (B) solution was prepared by dissolving salicylic acid in a stoichiometric amount of sodium hydroxide dissolved in water. Once all of the salicylic acid was dissolved, sodium nitrite and coco betaine were added. The first (A) and second (B) solutions were then mixed. A foam was produced upon the mixing/priming of the first (A) solution and the second (B) solution.
Three solutions of ascorbic acid (0.4 M, 0.5 M, and 0.6 M) were prepared and used as first (A) solutions. The second (B) solution was as provided in Example 1 except that BAC was not included. The solutions were poured into small foam dispensers. One squirt of foam from each of the first (A) solution and the second (B) solution was combined in a weight boat and NOx formation was measured.

[2] = Mixing of lidocaine HCl solution into the first (A) solution in a stable manner; conditions: first (A) solution not including BAC; monitoring time three minutes
Source text: The monitoring time was three minutes.

[3] = NOx release from mixed liquids, Thermoscientific 42iQLS Gas Analyzer
Source text: For the NO release testing, one mL of each solution was dispensed into a weight boat using the pipetter. A new pipette tip was used for each aliquot. For NO release measurements, the weigh boat was then placed into the sampling bin of a Thermoscientific 42iQLS Gas Analyzer, and the lid placed on top. The analyzer began measuring NOx released from the mixed liquid in the weigh boat as indicated by the rise of both the NO and NO2 measurements on the screen of the analyzer, a 10-minute timer was started.
Once the datalogger had collected 70 time points (700 seconds) of data: • 1. the data logging program was halted • 2. The weigh boat was removed from the chamber and disposed of in a separate room • 3. A fan was used to blow fresh air into the testing chamber for 10 seconds • 4. The next test was conducted when the analyzer measured less than 5 ppm total NOx […]
About 1 mL of Manuka honey was mixed with 1 mL of standard second (B) solution (not including BAC). […]

[4] = pH of lidocaine HCl solution, calibrated lab pH meter; conditions: 4 percent solution in water
Procedure: A 4% w/w solution of lidocaine in deionized water was prepared. The pH of the solution was measured using a conventional calibrated lab pH meter.

SMILES | production of NOx [1] | reaction on mixing with the standard first (A) solution [2] | NOx release ([3]; 4 percent lidocaine HCl solution mixed with second (B) solution (no BAC) only, FIG. 6) | NOx release ([3]; 4 percent lidocaine HCl solution mixed with standard first (A) and second (B) solutions (no BAC), FIG. 7) | pH [4]
O=C1O[C@H]([C@@H](O)CO)C(O)=C1O [ascorbic acid] | lower levels of production of NOx than citric acid |  |  |  | 
CCN(CC)CC(=O)Nc1c(C)cccc1C [lidocaine HCl] |  | No reaction was observed | NO was produced; also recorded: Only a small amount of NOx was released | NO was also produced; also recorded: a large amount of NOx was released | 4.16
